From patent publication US7091038B2, “Ecdysone receptor-based inducible gene expression system” (RheoGene, Inc., priority 2000, dated 2006) come the findings set out here.

Each structure is given as a SMILES string.

Test [1] has as its system GAL4CfEcRVP16. The test can be described thus: Transactivation of reporter gene through switch 1.6 in CHO cells. Format: cell-based, Choristoneura fumiferana. The following applies: switch 1.6, pGAL4RELuc. On the procedure: This construct was prepared so that both the GAL4 DNABD and the VP16AD were placed on the same molecule. GAL4DNABD (SEQ ID NO: 43) and VP16AD (SEQ ID NO: 49) were fused to CfEcRDEF (SEQ ID NO: 3) at N-and C-termini respectively.
(§1) The cells were harvested and reporter activity was assayed.
(§2) Cells were harvested 24–48 hr after adding ligands. […] Twenty μl of lysate was assayed.
On the technique in general: A reporter such as luciferase makes a cellular process visible.

The subject of test [2] is EcR/RXR receptor combinations. The test can be described thus: Truncated CfEcR and MmRXR receptor combinations, luciferase reporter in NIH3T3 cells. The test is classed as cell-based, Choristoneura fumiferana; Mus musculus. Particulars: 0, 1, 5 or 25 uM ligand for 48 hr, FIGS. 11–14. The protocol:
Briefly, polynucleotides encoding EcR or RXR receptors were truncated at the junctions of A/B, C, D, E and F domains and fused to either a GAL4 DNA binding domain encoding polynucleotide (SEQ ID NO: 43) for CfEcR, or a VP16 activation domain encoding polynucleotide (SEQ ID NO: 49) for MmRXR as described in Example 1. The resulting receptor truncation/fusion polypeptides were assayed in NIH3T3 cells. Plasmid pFRLUC (Stratagene) encoding a luciferase polypeptide was used as a reporter gene construct and pTKRL (Promega) encoding a Renilla luciferase polypeptide under the control of the constitutive TK promoter was used to normalize the transfections as described above. The analysis was performed in triplicates and mean luciferase counts were determined as described above. […]

The target of test [3] is T1, GAL4RXR + VP16DmEcR (Drosophila melanogaster, UniProt P34021).
T1 sequence (P34021 254-878): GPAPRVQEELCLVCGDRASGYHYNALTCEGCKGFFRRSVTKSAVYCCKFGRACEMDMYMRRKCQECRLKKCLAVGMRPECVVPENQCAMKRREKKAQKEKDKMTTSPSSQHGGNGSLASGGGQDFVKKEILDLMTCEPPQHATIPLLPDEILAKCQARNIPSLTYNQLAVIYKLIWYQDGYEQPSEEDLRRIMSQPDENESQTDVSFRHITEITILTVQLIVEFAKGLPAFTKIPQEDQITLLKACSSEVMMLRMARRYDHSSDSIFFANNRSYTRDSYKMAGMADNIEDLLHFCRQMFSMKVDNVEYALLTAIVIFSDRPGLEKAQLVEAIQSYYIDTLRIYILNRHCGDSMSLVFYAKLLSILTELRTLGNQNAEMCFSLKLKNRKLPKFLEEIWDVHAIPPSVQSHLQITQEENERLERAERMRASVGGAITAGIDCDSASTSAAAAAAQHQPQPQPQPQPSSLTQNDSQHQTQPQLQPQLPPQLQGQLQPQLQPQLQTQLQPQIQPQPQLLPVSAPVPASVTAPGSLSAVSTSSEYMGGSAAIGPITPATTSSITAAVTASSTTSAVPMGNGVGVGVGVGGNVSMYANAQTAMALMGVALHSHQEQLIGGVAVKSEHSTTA
T1 sequence (P28700 206-467 partner limits assumed): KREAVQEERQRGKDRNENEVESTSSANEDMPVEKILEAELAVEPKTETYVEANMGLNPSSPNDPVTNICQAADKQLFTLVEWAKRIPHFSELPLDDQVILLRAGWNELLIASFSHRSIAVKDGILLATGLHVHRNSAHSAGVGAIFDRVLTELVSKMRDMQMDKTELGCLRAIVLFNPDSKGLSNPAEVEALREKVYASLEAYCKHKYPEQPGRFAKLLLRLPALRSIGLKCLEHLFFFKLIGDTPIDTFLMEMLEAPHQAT
The test can be described thus: Transactivation of reporter gene through switch 1.4 in 293 cells. Format: cell-based, Mus musculus; Drosophila melanogaster. Particulars: switch 1.4, pGAL4RELuc. On the procedure: This construct was prepared in the same way as switch 1.3 except CfEcRCDEF was replaced with DmEcRCDEF (SEQ ID NO: 6).
as §1
(§3) The same procedures described for CHO were followed for 293 cells except that the cells were plated in biocoated plates to avoid clumping.
as §2

In test [4] the test system is VP16CfEcR. The test can be described thus: Transactivation of reporter gene through switch 1.7 in 3T3 cells. Format: cell-based, Choristoneura fumiferana. Particulars: switch 1.7, pEcRELuc. On the procedure:
(§4) Six ecdysone response elements (“EcRE”; SEQ ID NO: 55) from the hsp27 gene were placed upstream of the promoter and a luciferase gene (SEQ ID NO: 66). This switch most probably uses endogenous RXR.
as §1
The cells were plated when they reached 50% confluency.
as §2

Test [5] has as its system VP16CfEcR. The test can be described thus: Transactivation of reporter gene through switch 1.7 in 293 cells. The test is classed as cell-based, Choristoneura fumiferana. Particulars: switch 1.7, pEcRELuc. On the procedure: as §4, §1, §3, §2

For the compound `CCc1c(OC)cccc1C(=O)NN(C(=O)c1cc(C)cc(C)c1)C(C)(C)C` [N-(2-ethyl-3-methoxybenzoyl)-N′-(3,5-dimethylbenzoyl)-N′-t-butylhydrazine], in test [1], the “Mean Fold Activation with 50 μM N-(2-ethyl-3-methoxybenzoyl)-N′-(3,5-dimethylbenzoyl)-N′-t-butylhydrazine” value amounted to 9 fold. In addition, in test [2], the “Sensitivity of the EcR/RXR switch to the ligand” value is on record as “much more sensitive”. The “Mean Fold Activation Through N-(2-ethyl-3-methoxybenzoyl)-N′-(3,5-dimethylbenzoyl)-N′-t-butylhydrazine” value in test [3] came to 3 fold; in test [4], 1 fold; in test [5] it was 2 fold.
